Laboratory results: ChEMBL document CHEMBL1201862, “PubChem BioAssay data set” (2004)
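Following 48 hours of exposure in 96-well plates, responses at five concentrations were used to interpolate endpoints linearly. GI50 is the concentration that inhibits growth by half.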 The source made the active and inactive calls. Cut-off read from the data, not from the text of the source: active = GI50 up to about 1.1 µM and inactive = higher.

Experiments:
Assay in all cases: NCI-60 cell line screen, 48 h
[1] = test system: OVCAR-5
[2] = test system: OVCAR-8
[3] = test system: SK-MEL-28
[4] = test system: SK-MEL-5
[5] = test system: MDA-N
[6] = test system: UACC-257
[7] = test system: BT-549
[8] = test system: K562
[9] = test system: UO-31
[10] = test system: HCC 2998
[11] = test system: MDA-MB-231
[12] = test system: SW-620
[13] = test system: U-251
[14] = test system: NCI/ADR-RES
[15] = test system: SF-539
[16] = test system: SK-MEL-2
[17] = test system: DU-145
[18] = test system: MOLT-4
[19] = test system: NCI-H460
[20] = test system: SF-268
[21] = test system: UACC-62
[22] = test system: SF-295
[23] = test system: SK-OV-3
[24] = test system: SN12C
[25] = test system: ACHN
[26] = test system: NCI-H522
[27] = test system: RPMI-8226
[28] = test system: A498
[29] = test system: A549
[30] = test system: TK-10
[31] = test system: 786-0
[32] = test system: HCT-15
[33] = test system: T47D
[34] = test system: SNB-19
[35] = test system: MDA-MB-435
[36] = test system: CAKI-1
[37] = test system: HOP-92
[38] = test system: OVCAR-4
[39] = test system: HL-60
[40] = test system: OVCAR-3
[41] = test system: MCF7
[42] = test system: NCI-H226
[43] = test system: COLO 205
[44] = test system: PC-3
[45] = test system: HCT-116
[46] = test system: M14
[47] = test system: LOX IMVI
[48] = test system: NCI-H23
[49] = test system: CCRF-CEM
[50] = test system: Hs-578T
[51] = test system: Malme-3M
[52] = test system: HT-29
[53] = test system: HOP-62
[54] = test system: EKVX
[55] = test system: KM12
[56] = test system: RXF 393
[57] = test system: IGROV-1

For `Cc1nn(C2OC(CO)C(O)C(F)C2O)c(=O)[nH]c1=O` (configuration not stated), the GI50 [1] was > 100 µM (inactive), the GI50 [2] was > 100 µM (inactive) and the GI50 [3] was > 100 µM (inactive). The GI50 [4] was > 100 µM (inactive), the GI50 [5] was > 100 µM (inactive) and the GI50 [6] was > 100 µM (inactive). For the same molecule, the GI50 [7] was > 100 µM (inactive), the GI50 [8] was > 100 µM (inactive) and the GI50 [9] was > 100 µM (inactive). The GI50 [10] was > 100 µM (inactive), the GI50 [11] was > 100 µM (inactive) and the GI50 [12] was > 100 µM (inactive). The GI50 [13] was > 100 µM (inactive), the GI50 [14] was > 100 µM (inactive) and the GI50 [15] was > 100 µM (inactive). For the same molecule, the GI50 [16] was > 100 µM (inactive), the GI50 [17] was > 100 µM (inactive) and the GI50 [18] was 0.504 µM (active). The GI50 [19] was > 100 µM (inactive), the GI50 [20] was > 100 µM (inactive) and the GI50 [21] was > 100 µM (inactive). For the same molecule, the GI50 [22] was > 100 µM (inactive), the GI50 [23] was > 100 µM (inactive) and the GI50 [24] was > 100 µM (inactive). For the same molecule, the GI50 [25] was > 100 µM (inactive), the GI50 [26] was > 100 µM (inactive) and the GI50 [27] was > 100 µM (inactive). The GI50 [28] was > 100 µM (inactive), the GI50 [29] was > 100 µM (inactive) and the GI50 [30] was > 100 µM (inactive). The GI50 [31] was > 100 µM (inactive), the GI50 [32] was over 100 µM and the GI50 [33] was > 100 µM (inactive). The GI50 [34] was > 100 µM (inactive), the GI50 [35] was > 100 µM (inactive) and the GI50 [36] was > 100 µM (inactive). For the same molecule, the GI50 [37] was > 100 µM (inactive), the GI50 [38] was > 100 µM (inactive) and the GI50 [39] was > 100 µM (inactive). For the same molecule, the GI50 [40] was > 100 µM (inactive), the GI50 [41] was > 100 µM (inactive) and the GI50 [42] was > 100 µM (inactive). For the same molecule, the GI50 [43] was > 100 µM (inactive), the GI50 [44] was > 100 µM (inactive) and the GI50 [45] was > 100 µM (inactive). The GI50 [46] was > 100 µM (inactive), the GI50 [47] was > 100 µM (inactive) and the GI50 [48] was > 100 µM (inactive). For the same molecule, the GI50 [49] was > 100 µM (inactive), the GI50 [50] was > 100 µM (inactive) and the GI50 [51] was > 100 µM (inactive). For the same molecule, the GI50 [52] was > 100 µM (inactive).

With `Cc1ccc(Nc2nc(C)c(C(=O)CC(=O)C(=O)Nc3c(C)cccc3C(C)(C)C)s2)cc1` the GI50 [1] was > 100 µM (inactive), the GI50 [2] was 79.3 µM (inactive) and the GI50 [4] was > 100 µM (inactive). For the same molecule, the GI50 [5] was > 100 µM (inactive), the GI50 [6] was > 100 µM (inactive) and the GI50 [53] was 38.5 µM (inactive). For the same molecule, the GI50 [7] was > 100 µM (inactive), the GI50 [8] was > 100 µM (inactive) and the GI50 [9] was > 100 µM (inactive). The GI50 [10] was > 100 µM (inactive), the GI50 [11] was 42.9 µM (inactive) and the GI50 [12] was > 100 µM (inactive). For the same molecule, the GI50 [13] was 71.8 µM (inactive), the GI50 [14] was > 100 µM (inactive) and the GI50 [15] was > 100 µM (inactive). For the same molecule, the GI50 [16] was > 100 µM (inactive), the GI50 [17] was > 100 µM (inactive) and the GI50 [18] was > 100 µM (inactive). For the same molecule, the GI50 [19] was > 100 µM (inactive), the GI50 [20] was > 100 µM (inactive) and the GI50 [54] was > 100 µM (inactive). The GI50 [21] was > 100 µM (inactive), the GI50 [22] was > 100 µM (inactive) and the GI50 [23] was > 100 µM (inactive). The GI50 [24] was > 100 µM (inactive), the GI50 [25] was > 100 µM (inactive) and the GI50 [26] was > 100 µM (inactive). The GI50 [27] was > 100 µM (inactive), the GI50 [28] was > 100 µM (inactive) and the GI50 [29] was > 100 µM (inactive). The GI50 [30] was > 100 µM (inactive), the GI50 [31] was 75.9 µM (inactive) and the GI50 [32] was over 100 µM. For the same molecule, the GI50 [33] was > 100 µM (inactive), the GI50 [34] was > 100 µM (inactive) and the GI50 [35] was > 100 µM (inactive). The GI50 [36] was > 100 µM (inactive), the GI50 [37] was > 100 µM (inactive) and the GI50 [38] was > 100 µM (inactive). For the same molecule, the GI50 [39] was > 100 µM (inactive), the GI50 [55] was > 100 µM (inactive) and the GI50 [40] was > 100 µM (inactive). For the same molecule, the GI50 [41] was > 100 µM (inactive), the GI50 [42] was > 100 µM (inactive) and the GI50 [43] was > 100 µM (inactive). The GI50 [44] was > 100 µM (inactive), the GI50 [45] was > 100 µM (inactive) and the GI50 [46] was > 100 µM (inactive). For the same molecule, the GI50 [56] was > 100 µM (inactive), the GI50 [47] was > 100 µM (inactive) and the GI50 [48] was > 100 µM (inactive). For the same molecule, the GI50 [49] was > 100 µM (inactive), the GI50 [50] was 56 µM (inactive) and the GI50 [57] was > 100 µM (inactive). For the same molecule, the GI50 [52] was > 100 µM (inactive).
